This note sets out measurements from ChEMBL document CHEMBL1141934, “Comparison of ligand-based and structure-based 3D-QSAR approaches: a case study on (aryl-)bridged 2-aminobenzonitriles inhibiting HIV-1 reverse transcriptase” (J Med Chem, 2005).

The target in this assay is Human immunodeficiency virus type 1 reverse transcriptase (Human immunodeficiency virus 1, UniProt Q72547). Kind of assay: Inhibitory concentration against Reverse transcriptase.

In turn, `N#Cc1ccccc1[S+]([O-])c1cccc(N)c1C#N` (configuration not stated) showed an IC50 of 9.77 µM. To `N#Cc1c(N)cccc1S(=O)(=O)c1ccc2ccccc2c1` belongs 0.0295 µM.

Broadly, the IC50 is the concentration at which inhibition is half-maximal. Lower therefore signals greater potency in that assay.
